{"source": "patent US20230390315A1", "about": "“COMPOSITIONS AND METHODS FOR TREATING ISCHEMIC CONDITIONS” (The Regents of the University of California, priority 2020, published 2023)", "key": {"[1]": {"system": "bovine choroidal microvascular endothelial cells (BCEC)", "test": "BCEC proliferation assay", "type": "cell-based", "settings": "for stimulation of BCEC proliferation by structurally related molecules: with or without VEGF, 0.04 μM-5 mM; for block of ManN effects on BCEC proliferation by monosaccharides: monosaccharide at maximum 1:10 molar ratio, added after 2 hours ManN; for stimulatory effect of hexosamines on BCEC proliferation: tested alongside ManN, FIG. 1D", "method": "Proliferation assays with BCECs and BRECs were performed. Log-phase growing BCECs or BRECs (passage <10) were trypsinized, re-suspended and seeded in 96-well plates (no coating) in low-glucose DMEM supplemented with 10% bovine calf serum, 2 mM glutamine, and antibiotics (growth medium), at a density of 1200-1500 cells per well in 200 μl volume. All reagents were added at the indicated final concentrations. […] Fluorescence was measured at 530 nm excitation wavelength and 590 nm emission wavelength. The experiments were repeated at least three times. […] On each 96-well plate, untreated and VEGF-treated (10/ng/ml) wells were included to monitor plate-to-plate variations. 20% methanol or 0.05% DMSO served as negative controls. 0.05% DMSO served as negative controls when Cas was tested in these cells. Human […] and human adult […] were split into Gelatin-coated 96 wells (2000 cells per well) in low glucose DMEM containing 10% FBS. 1200 cells/well was set up for proliferation assay in low glucose media containing FBS. […] HUVEC (p7-10) were grown on gelatin-coated plate until it reached 70-80% confluency. On the day of the assay, cells were dissociated with 0.05% trypsin, which was neutralized with 0.5% FBS-containing EBM. Cells were briefly spun and then re-suspended in 0.5% FBS-media. Cells were counted and plated in 96-well, 1000 cells/well. Triplicate wells were used for each treatment. Data were collected at day 3, and then cells were fixed in 4% paraformaldehyde for 15 min before adding crystal violet. Cell-covered areas were quantified after taking pictures by Image J software."}, "Bip, CHOP and ATF-6": {"system": "Bip, CHOP and ATF-6", "test": "Western blot of UPR responsive proteins in BCECs", "type": "cell-based, bovine", "settings": "for prevention of CHOP induction by ManN: 2 mM 4-PBA or 500 uM TUDCA, ManN at 400 uM and 5 mM; for restoration of ATF-6 expression: ManN at 400 uM", "method": "(§1) Cells were allowed to reach ˜80% confluency in 12-well plates. […] At various time points, plates were taken out of the incubator and kept on ice. Cell monolayers were first washed once with ice-cold PBS before lysis with 250 μl of Pierce RIPA buffer (ThermoFisher Scientific, Rockford, IL) or use 50 mM Tris-HCl (pH 7.6), 150 mM NaCl, 10% Glycerol, 1% NP-40 containing protease/Phosphatase inhibitor cocktail (100×) (Cell signaling, #5872). Lysates were collected and mixed with 4×Bolt LDS Sample Buffer (Novex, Carlsbad, CA) in the presence of Halt protease inhibitors and phosphatase inhibitor cocktail (ThermoFisher scientific, #NP0007). The samples were subjected to SDS-PAGE (Bolt 4-12% Bis-Tris Plus, Invitrogen) using Bolt MES SDS running buffer or NuPAGE 3-8% Tris-Acetate gel using Tris-Acetate SDS running buffer (Novex). HUVECs (passage 6-8) were plated in EBM-2 basal medium (Lonza) with 0.2% FBS. […] Equal amounts of protein lysates were analyzed by SDS-PAGE and blotted with the indicated antibodies. Proteins were transferred using Tris-Glycine buffer with 20% Methanol (Proteonomics grade) (Apex BioResearch Products). Membranes were first incubated with 5% milk in TBST, pH 7.6 (TEKnova, Hollister, CA), followed by blotting with primary and secondary antibodies. ECL anti-rabbit IgG, horseradish peroxidase linked whole antibody from donkey or sheep anti-mouse were obtained from GE Healthcare (UK limited). SuperSignal West Dura Extended Duration substrate was from ThermoFisher Scientific. In some cases, the same PVDF membranes were stripped by 8-min incubation in the Restore Plus Western Blot Stripping Buffer (ThermoFisher Scientific) to show total specific protein expression, followed by second stripping for β-actin expression."}, "JNK/c-Jun": {"system": "JNK/c-Jun", "test": "Western blot of JNK pathway activation in BCECs", "type": "cell-based, bovine", "settings": "media without growth factors", "method": "as §1, with “80%” for “˜80%”"}, "[2]": {"system": "ERK, AKT, mTOR, CREB, ACC and eNOS", "test": "Western blot of signal transduction pathways in BCECs", "type": "cell-based, bovine", "method": "as §1"}, "VEGFR2": {"system": "VEGFR2", "test": "Western blot of VEGFR2 molecular mass in BCECs and BRECs", "type": "cell-based, bovine", "settings": "24 hours; SDS-PAGE", "method": "Glycerol-free PNGase F was obtained from New England Biolabs (Ipswich, MA). Briefly, BCECs were lysed with NP-40 containing proteinase inhibitors (Thermo Scientific, Waltham, MA). Lysates were cleared at 4° C. at 5000 g for 25 mins. Total protein content was measured using Pierce BCA protein assay kit (ThermoScientific). […] of protein was mixed with 10× denaturing buffer and H2O to a total volume of […]. Glycoproteins were denatured at 100° C. for 10 mins, followed by adding Glycobuffer and PNGase F. The reaction was carried out at 37° C. for 2 hr.\nas §1"}, "[3]": {"system": "BCEC confluent monolayers", "test": "BCEC scratch assay", "type": "cell-based, bovine", "settings": "over 48 hours relative to control", "method": "BCECs (passage 6-10) and HUVEC (passage 6-8) were used in this assay. Cells were grown until about 80% confluency in 6-well plates, washed twice with PBS and then starved in serum-free DMEM (low Glucose, Hyclone) for 5 hrs before making a “scratch” using 1 ml tip. Cell monolayers were briefly washed once with serum-free media, followed by various treatments in media containing 1% FBS. 48 hrs later, the assay was stopped by adding 2 ml 4% paraformaldehyde. 20 min later, fixed cells were stained with 1 ml Crystal Violet (Sigma). Plates were washed gently under the running tap water and air-dried before taking pictures. Images were acquired by ZEISS Discovery […] microscopy equipped with […] camera. Quantification of wound closure was done using AxioVision LE Rel.4.4 software. Six images were taken for each sample and six measurements (in pixel) were made on each image using AxioVision LE Rel.4.4 software."}, "ERK and AKT": {"system": "ERK and AKT", "test": "Western blot of ERK and AKT activation in HUVEC and hDMVECs", "type": "cell-based, human", "settings": "hDMVECs", "method": "as §1, with “80%” for “˜80%”, “ECL anti-rabbit IgG, horseradish peroxidase linked whole antibody from donkey or sheep anti-mouse were obtained from GE Healthcare (UK limited). SuperSignal West Dura Extended Duration substrate was from ThermoFisher Scientific. In some cases, the same PVDF membranes were stripped by 8-min incubation in the Restore Plus Western Blot Stripping Buffer (ThermoFisher Scientific) to show total specific protein expression, followed by second stripping for β-actin expression.” left out"}, "[4]": {"settings": "mouse, in vivo, po"}, "retinal vasculature": {"system": "retinal vasculature", "test": "Retinal neovascularization after intravitreal injection", "type": "in vivo, mouse", "settings": "intravitreal 500 ng ManN or Kif, 200 ng bFGF; seven days", "method": "Assessment of retinal angiogenesis following intravitreal administration was done. Briefly, 6-8 weeks old C57BL/6 male mice were randomly allocated to different groups and anesthetized with ketamine/Xylazine cocktail. The indicated amounts of ManN, Kif or bFGF (R&D systems, AF-233-NA) in 1 μl of PBS and PBS vehicle control were injected intravitreally with a 33-gauge Hamilton syringe. Seven days after injection, animals were euthanized. Eyes were then enucleated and fixed in 4% paraformaldehyde (PFA) for 30 mins. Retinas were separated and stained with anti-CD31 immunofluorescence (IF) to evidence the vasculature. Evaluations were performed by an investigator blinded to the treatment. For CD31 IF, rat anti-mouse antibody (BD Biosciences, CAT #550274) was diluted 1:100 and incubated overnight at 4° C. After 4-hour incubation with the Alexa Fluor-488-conjugated anti-rat antibody (Life Technologies, A11006), whole mounts were imaged via the 488 nm channel using A1R Confocal STORM super-resolution system (Nikon). Quantification of vascular density in choroids and retina was carried out by Image J. Each experiment was repeated three times with similar results, and each treatment group consists of 5 individual samples."}}, "note": "Entries after “also recorded” stand apart in the source; their conditions may differ."}
{"molecule": "O=C(O)CCCc1ccccc1", "note": "[4-PBA, 4-phenylbutyric acid]", "values": [{"measurement": "additivity between ManN and VEGF after chemical chaperon pre-treatment", "setting": "[1]; 1 mM 4-PBA", "result": "largely abolished"}, {"measurement": "reversal of bell-shaped activity of ManN on BCEC proliferation by chemical chaperon", "setting": "[1]; pre-treating with 1 mM 4-PBA for 4 hours, absence or presence of VEGF", "result": "effectively reverse the bell-shaped activity of ManN"}, {"measurement": "prevention of CHOP induction by ManN", "setting": "Bip, CHOP and ATF-6", "result": "prevent the induction of CHOP expression"}, {"measurement": "restoration of ATF-6 expression", "setting": "Bip, CHOP and ATF-6", "result": "restore the expression of ATF-6"}]}
{"molecule": "O[C@H]1[C@H](O)[C@@H](O)CN2CC[C@H](O)[C@H]12", "note": "[Cas, Castanospermine, reference compound]", "values": [{"measurement": "activation of JNK pathway (JNK and downstream c-Jun)", "setting": "JNK/c-Jun", "result": "able to activate the JNK pathway"}, {"measurement": "activation of ERK", "setting": "[2]; 40 uM, BCECs", "result": "less obvious; also recorded: did not activate ERK"}, {"measurement": "VEGFR2 molecular mass after glycosylation inhibitor treatment", "setting": "VEGFR2", "result": "reduction in VEGFR2 molecular mass"}, {"measurement": "BCEC proliferation with N-glycosylation inhibitors", "setting": "[1]; absence or presence of 5 ng/ml VEGF", "result": "stimulated in a dose-dependent fashion"}, {"measurement": "activity of glycosylation inhibitors in BCEC scratch assay", "setting": "[3]", "result": "significant activity"}, {"measurement": "Bip expression with glycosylation inhibitors", "setting": "Bip, CHOP and ATF-6; media without growth factors for 24 hours", "result": "dose-dependent induction of Bip expression"}, {"measurement": "activation of ERK", "setting": "ERK and AKT", "result": "less obvious"}]}
{"molecule": "Cl.NCC(=O)[C@@H](O)[C@H](O)[C@H](O)CO", "note": "[D-isoglucosamine, 1-Amino-1-deoxy-D-Fructose hydrochloride]", "values": [{"measurement": "stimulation of BCEC proliferation by structurally related molecules", "setting": "[1]", "result": "None of these molecules stimulated BCEC proliferation"}]}
{"molecule": "N[C@@H]1C(O)O[C@H](COP(=O)(O)O)[C@@H](O)[C@@H]1O", "note": "(stereo partly drawn) [ManN-6p, ManN-6-phosphate]", "values": [{"measurement": "ManN-6p in ischemic leg muscle", "setting": "[4]", "result": "0.91+/−0.24 nmol/mg protein"}]}
{"molecule": "CC(=O)N[C@@H]1C(O)O[C@H](CO)[C@@H](O)[C@@H]1O", "note": "(stereo partly drawn) [ManNAc, N-acetyl-Mannosamine, reference compound]", "values": [{"measurement": "activation of ERK, AKT, mTOR, CREB, ACC and eNOS by other agents", "setting": "[2]; 40 μM, compared with ManN", "result": "induced a similar activation"}]}
{"molecule": "CC(=O)N[C@H]1[C@H]([C@H](O)[C@H](O)CO)OC(O)(C(=O)O)C[C@@H]1O", "note": "(stereo partly drawn) [N-Acetyl-neuraminic acid, N-Acetylneuraminic acid]", "values": [{"measurement": "stimulation of BCEC proliferation by structurally related molecules", "setting": "[1]", "result": "None of these molecules stimulated BCEC proliferation"}]}
{"molecule": "C[C@H](CCC(=O)NCCS(=O)(=O)O)[C@H]1CC[C@H]2[C@@H]3[C@@H](O)C[C@@H]4C[C@H](O)CC[C@]4(C)[C@H]3CC[C@]12C", "note": "[TUDCA, tauroursodeoxycholic acid]", "values": [{"measurement": "prevention of CHOP induction by ManN", "setting": "Bip, CHOP and ATF-6", "result": "not"}, {"measurement": "restoration of ATF-6 expression", "setting": "Bip, CHOP and ATF-6", "result": "much weaker"}]}
{"molecule": "C[C@H](O)[C@@H](O)[C@@H](O)[C@H](O)C=O", "note": "[fucose, reference compound]", "values": [{"measurement": "block of ManN effects on BCEC proliferation by monosaccharides", "setting": "[1]", "result": "not"}]}
{"molecule": "N[C@H]1C(O)O[C@H](CO)[C@H](O)[C@@H]1O", "note": "(stereo partly drawn) [galactosamine, D-(+)-Galactosamine]", "values": [{"measurement": "stimulatory effect of hexosamines on BCEC proliferation", "setting": "[1]", "result": "none of these hexosamines had significant stimulatory effects"}]}
{"molecule": "O=C[C@H](O)[C@@H](O)[C@@H](O)[C@H](O)CO", "note": "[galactose, reference compound]", "values": [{"measurement": "block of ManN effects on BCEC proliferation by monosaccharides", "setting": "[1]", "result": "not"}]}
{"molecule": "N[C@H]1C(O)O[C@H](CO)[C@@H](O)[C@@H]1O", "note": "(stereo partly drawn) [glucosamine, D-(+)-Glucosamine]", "values": [{"measurement": "stimulatory effect of hexosamines on BCEC proliferation", "setting": "[1]", "result": "none of these hexosamines had significant stimulatory effects"}]}
{"molecule": "CNC[C@H](O)[C@@H](O)[C@H](O)[C@H](O)CO", "note": "[meglumine, Meglumine]", "values": [{"measurement": "stimulation of BCEC proliferation by structurally related molecules", "setting": "[1]", "result": "None of these molecules stimulated BCEC proliferation"}]}
{"molecule": "C[C@@H](O[C@H]1[C@H](O)[C@@H](CO)OC(O)[C@@H]1N)C(=O)O", "note": "(stereo partly drawn) [muramic acid, Muramic acid]", "values": [{"measurement": "stimulation of BCEC proliferation by structurally related molecules", "setting": "[1]", "result": "None of these molecules stimulated BCEC proliferation"}]}
{"molecule": "bFGF: bFGF growth factor purchased from R&D systems, positive control", "values": [{"measurement": "increase in density of retinal vessels compared to PBS group", "setting": "retinal vasculature", "result": "about 35%"}]}
